Reference: PubChem BioAssay AID1919017 (Molecular Pharmacology Branch, DTP, NCI, 2023)

System: SW1271 complex spheroids with HUVEC/MSC, growth, % test/control
Assay: Anticancer human tumor SW1271 cell line growth inhibition [AhR];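 note: spheroids exposed to agents for 7 days before readout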
Settings: for IC50: curve of first compound; for viability, T/C: stronger effect = lower value
How it was run: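 Agents were dosed in half-log steps down from roughly clinical Cmax, or from 10 microM where Cmax was unknown, alone and with AhR antagonists. Read-out: percent test/control growth of tumor spheroids containing HUVEC and MSC stromal cells.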

[1] = second compound 0.1 µM, first compound 0.0316 µM
[2] = second compound 0.1 µM, first compound 0.1 µM
[3] = second compound 0.1 µM, first compound 0.316 µM
[4] = second compound 0.1 µM, first compound 1 µM
[5] = second compound 0.1 µM, first compound 3.16 µM
[6] = second compound 0.1 µM, first compound 10 µM
[7] = second compound 0.316 µM, first compound 0.0316 µM
[8] = second compound 0.316 µM, first compound 0.1 µM
[9] = second compound 0.316 µM, first compound 0.316 µM
[10] = second compound 0.316 µM, first compound 1 µM
[11] = second compound 0.316 µM, first compound 3.16 µM
[12] = second compound 0.316 µM, first compound 10 µM
[13] = second compound 1 µM, first compound 0.0316 µM
[14] = second compound 1 µM, first compound 0.1 µM
[15] = second compound 1 µM, first compound 0.316 µM
[16] = second compound 1 µM, first compound 1 µM
[17] = second compound 1 µM, first compound 3.16 µM
[18] = second compound 1 µM, first compound 10 µM
[19] = second compound 3.16 µM, first compound 0.0316 µM
[20] = second compound 3.16 µM, first compound 0.1 µM
[21] = second compound 3.16 µM, first compound 0.316 µM
[22] = second compound 3.16 µM, first compound 1 µM
[23] = second compound 3.16 µM, first compound 3.16 µM
[24] = second compound 3.16 µM, first compound 10 µM
[25] = second compound 10 µM, first compound 0.0316 µM
[26] = second compound 10 µM, first compound 0.1 µM
[27] = second compound 10 µM, first compound 0.316 µM
[28] = second compound 10 µM, first compound 1 µM
[29] = second compound 10 µM, first compound 3.16 µM
[30] = second compound 10 µM, first compound 10 µM

Row | SMILES | IC50 (second compound 0.1 µM) [nM] | IC50 (second compound 0.316 µM) [nM] | IC50 (second compound 1 µM) [nM] | IC50 (second compound 3.16 µM) [nM] | IC50 (second compound 10 µM) [nM] | viability, T/C [1] [%] | viability, T/C [2] [%] | viability, T/C [3] [%] | viability, T/C [4] [%] | viability, T/C [7] [%] | viability, T/C [8] [%] | viability, T/C [9] [%] | viability, T/C [10] [%] | viability, T/C [13] [%] | viability, T/C [14] [%] | viability, T/C [15] [%] | viability, T/C [16] [%] | viability, T/C [19] [%] | viability, T/C [20] [%] | viability, T/C [21] [%] | also measured
1 | CC(C)c1c(-c2ccccc2)nc2c(C#N)c[nH]n2c1=O + Cc1cncc(-c2nc(NCCc3c[nH]c4ccccc34)c3ncn(C(C)C)c3n2)c1 | > 10000 | > 10000 | > 10000 | > 10000 | 472 | 104 | 104 | 96.4 | 111 | 85.2 | 121 | 100 | 96.3 | 89.5 | 111 | 87.6 | 80.2 | 90.1 | 93.7 | 109 | viability, T/C [5]: 102%; viability, T/C [6]: 108%; viability, T/C [11]: 95.9%; viability, T/C [12]: 106%; viability, T/C [17]: 87.7%; viability, T/C [18]: 82.5%; viability, T/C [22]: 91.5%; viability, T/C [23]: 99.2%; viability, T/C [24]: 99.9%; viability, T/C [25]: 53.4%; viability, T/C [26]: 58%; viability, T/C [27]: 48%; viability, T/C [28]: 48.2%; viability, T/C [29]: 44.8%; viability, T/C [30]: 50.4%
2 | CC1COCCN1c1cc(-c2ccnn2C)c2ccnc(-c3ccn[nH]3)c2n1 (stereo not given) + Cc1cncc(-c2nc(NCCc3c[nH]c4ccccc34)c3ncn(C(C)C)c3n2)c1 | 413 | 251 | 653 | 735 | < 3.16 | 70.2 | 57.4 | 58 | 39.4 | 70.4 | 62.2 | 48 | 35.1 | 75.3 | 63 | 62 | 44.2 | 72.4 | 70.2 | 61.3 | viability, T/C (second compound 0.1 µM, first compound 0.00316 µM): 79.6%; viability, T/C (second compound 0.1 µM, first compound 0.01 µM): 86.7%; viability, T/C (second compound 0.316 µM, first compound 0.00316 µM): 68%; viability, T/C (second compound 0.316 µM, first compound 0.01 µM): 90.1%; viability, T/C (second compound 1 µM, first compound 0.00316 µM): 89.8%; viability, T/C (second compound 1 µM, first compound 0.01 µM): 88%; viability, T/C (second compound 3.16 µM, first compound 0.00316 µM): 72.2%; viability, T/C (second compound 3.16 µM, first compound 0.01 µM): 85.2%; viability, T/C [22]: 46%; viability, T/C (second compound 10 µM, first compound 0.00316 µM): 30.2%; viability, T/C (second compound 10 µM, first compound 0.01 µM): 35%; viability, T/C [25]: 36.9%; viability, T/C [26]: 36.2%; viability, T/C [27]: 35%; viability, T/C [28]: 24.6%
3 | COc1ccc([C@@H](O)c2cc(-c3ncnc4cc(N5CCOCC5)ccc34)c(F)cc2Cl)nn1 + Cc1cncc(-c2nc(NCCc3c[nH]c4ccccc34)c3ncn(C(C)C)c3n2)c1 | 1850 | 3900 | 2890 | 5060 | < 31.6 | 82.7 | 93.6 | 83.2 | 56.7 | 87.3 | 96.7 | 75.1 | 72.7 | 91.3 | 87.3 | 93.3 | 68.2 | 81.6 | 99 | 81.9 | viability, T/C [5]: 47.9%; viability, T/C [6]: 36.7%; viability, T/C [11]: 52.2%; viability, T/C [12]: 36.9%; viability, T/C [17]: 50.8%; viability, T/C [18]: 36.3%; viability, T/C [22]: 70.1%; viability, T/C [23]: 55.8%; viability, T/C [24]: 43.2%; viability, T/C [25]: 45.5%; viability, T/C [26]: 43.3%; viability, T/C [27]: 41.5%; viability, T/C [28]: 36%; viability, T/C [29]: 22.1%; viability, T/C [30]: 18.1%
